A short description of data set [1]: AUC (0 to 12 hrs) in BALB/c mouse at 110 mg/kg, sc. The note with it: plasma.
For data set [2], the system named is Staphylococcus aureus. Kind of data set: Antibacterial activity against vancomycin-intermediate Staphylococcus aureus isolate 435 infected in neutropenic BALB/c mouse lung infection model assessed as reduction of CFU at 110 mg/kg, ip administered every 12 hrs measured after 24 hrs. Format: functional, organism-based. More on the design: dose 110 mg/kg.
A further data set deals with Homo sapiens. Kind of data set: fAUC in human at 1 gram administered every 12 hrs. Format: ADME, organism-based. The note with it: in vivo.
Data set [3] deals with Staphylococcus aureus. Kind of data set: Antibacterial activity against hospital-associated methicillin-resistant Staphylococcus aureus isolate 56 (494) infected in neutropenic BALB/c mouse lung infection model assessed as reduction of CFU at 110 mg/kg, ip administered every 12 hrs measured after 24 hrs. Further details: dose 110 mg/kg. Format: functional, organism-based.

For data set [4], the system named is Staphylococcus aureus. The data set can be described thus: Antibacterial activity against vancomycin-intermediate Staphylococcus aureus isolate 440 (A6298) infected in neutropenic BALB/c mouse lung infection model assessed as reduction of CFU at 110 mg/kg, ip administered every 12 hrs measured after 24 hrs. Format: functional, organism-based. More on the design: dose 110 mg/kg.

Data set [5] concerns Staphylococcus aureus. The data set can be described thus: Antibacterial activity against hospital-associated methicillin-resistant Staphylococcus aureus isolate 360 infected in neutropenic BALB/c mouse lung infection model assessed as reduction of CFU at 110 mg/kg, ip administered every 12 hrs measured after 24 hrs. Format: functional, organism-based. More on the design: dose 110 mg/kg.

Data set [6] has as its system Staphylococcus aureus. The data set can be described thus: Antibacterial activity against community-associated methicillin-resistant Staphylococcus aureus isolate 156 infected in neutropenic BALB/c mouse lung infection model assessed as reduction of CFU at 110 mg/kg, ip administered every 12 hrs measured after 24 hrs. Format: functional, organism-based. More on the design: dose 110 mg/kg.

The test system of data set [7] is Staphylococcus aureus. Kind of data set: Antibacterial activity against hospital-associated methicillin-resistant Staphylococcus aureus isolate 412 infected in neutropenic BALB/c mouse lung infection model assessed as reduction of CFU at 110 mg/kg, ip administered every 12 hrs measured after 24 hrs. Format: functional, organism-based. Further details: dose 110 mg/kg.

Data set [8] concerns Staphylococcus aureus. Kind of data set: Antibacterial activity against vancomycin-intermediate Staphylococcus aureus isolate 453 (NRS23) infected in neutropenic BALB/c mouse lung infection model assessed as reduction of CFU at 110 mg/kg, ip administered every 12 hrs measured after 24 hrs. More on the design: dose 110 mg/kg. Format: functional, organism-based.
The test system of data set [9] is Staphylococcus aureus. The data set can be described thus: Antibacterial activity against community-associated methicillin-resistant Staphylococcus aureus isolate 145 infected in neutropenic BALB/c mouse lung infection model assessed as reduction of CFU at 110 mg/kg, ip administered every 12 hrs measured after 24 hrs. Format: functional, organism-based. Further details: dose 110 mg/kg.

Data set [10] has as its system Staphylococcus aureus. The data set can be described thus: Antibacterial activity against hospital-associated methicillin-resistant Staphylococcus aureus isolate 336 infected in neutropenic BALB/c mouse lung infection model assessed as reduction of CFU at 110 mg/kg, ip administered every 12 hrs measured after 24 hrs. Format: functional, organism-based. More on the design: dose 110 mg/kg.

Data set [11] deals with Staphylococcus aureus. Kind of data set: Antibacterial activity against hospital-associated methicillin-resistant Staphylococcus aureus isolate 152 infected in neutropenic BALB/c mouse lung infection model assessed as reduction of CFU at 110 mg/kg, ip administered every 12 hrs measured after 24 hrs. Format: functional, organism-based. Further details: dose 110 mg/kg.
In data set [12] the test system is Staphylococcus aureus. The data set can be described thus: Antibacterial activity against vancomycin-intermediate Staphylococcus aureus isolate 454 (NRS404) infected in neutropenic BALB/c mouse lung infection model assessed as reduction of CFU at 110 mg/kg, ip administered every 12 hrs measured after 24 hrs. Format: functional, organism-based. Further details: dose 110 mg/kg.

In data set [13] the test system is Staphylococcus aureus. Kind of data set: Antibacterial activity against vancomycin-heteroresistant Staphylococcus aureus isolate 38 (Mu3) infected in neutropenic BALB/c mouse lung infection model assessed as reduction of CFU at 110 mg/kg, ip administered every 12 hrs measured after 24 hrs. Format: functional, organism-based. Further details: dose 110 mg/kg.
Data set [14] deals with Staphylococcus aureus. Kind of data set: Antibacterial activity against vancomycin-heteroresistant Staphylococcus aureus isolate 443 infected in neutropenic BALB/c mouse lung infection model assessed as reduction of CFU at 110 mg/kg, ip administered every 12 hrs measured after 24 hrs. Format: functional, organism-based. More on the design: dose 110 mg/kg.
A further data set relates to Mus musculus. The data set can be described thus: fAUC in BALB/c mouse at 110 mg/kg, sc administered every 12 hrs. The note with it: in vivo.

Active and inactive are the calls of the source. The calls are words filed in the database; no cut-off is given here.

Consider `CN[C@H](CC(C)C)C(=O)N[C@H]1C(=O)N[C@@H](CC(N)=O)C(=O)N[C@H]2C(=O)N[C@H]3C(=O)N[C@H](C(=O)N[C@H](C(=O)O)c4cc(O)cc(O)c4-c4cc3ccc4O)[C@H](O)c3ccc(c(Cl)c3)Oc3cc2cc(c3O[C@@H]2O[C@H](CO)[C@@H](O)[C@H](O)[C@H]2O[C@H]2C[C@](C)(N)[C@H](O)[C@H](C)O2)Oc2ccc(cc2Cl)[C@H]1O` [VANCOMYCIN], for which the exposure AUC(0-t) at 12 h in [1] amounted to 140 µg·h/mL. Further, the result in the data set with Staphylococcus aureus [2], in the data set with Staphylococcus aureus [3], in the data set on Staphylococcus aureus [4], in the data set on Staphylococcus aureus [5], in the data set with Staphylococcus aureus [6] and with Staphylococcus aureus [7] was Active. In addition, the result with Staphylococcus aureus [8], with Staphylococcus aureus [9], with Staphylococcus aureus [10], in the data set with Staphylococcus aureus [11], in the data set with Staphylococcus aureus [12] and in the data set with Staphylococcus aureus [13] was Active. For the same molecule, the outcome in the data set on Staphylococcus aureus [14] was Active. The fAUC worked out at 208 µg·h/mL in the data set with Homo sapiens and 196 µg·h/mL in the data set on Mus musculus.

The values above are taken from ChEMBL document CHEMBL1687804, “Comparative efficacies of human simulated exposures of telavancin and vancomycin against methicillin-resistant Staphylococcus aureus with a range of vancomycin MICs in a murine pneumonia model” (Antimicrob Agents Chemother, 2010).
